Numbers after ± are expanded uncertainties.
Assays:
[1] = 318.15 K; 101.33 kPa; Liquid
[2] = refractive index (Na D-line) (dimensionless); settings: 318.15 K; 101.33 kPa; Liquid; Standard Abbe refractometry
[3] = excess molar enthalpy (molar enthalpy of mixing); xn = mol fraction of the nth substance listed; settings: 318.15 K, 101 kPa, Liquid
[4] = xn = mol fraction of the nth substance listed; settings: 318.15 K, 101 kPa, Liquid

CCCCOC(=O)CC [butyl propanoate]
mass density [1]: 851.33 ± 0.99 kg/m3 | refractive index [2]: 1.3895 ± 0.0008

CCC(=O)OC [methyl propanoate]
mass density [1]: 884.6 ± 0.99 kg/m3 | refractive index [2]: 1.3641 ± 0.0008

CCCOC(=O)CC [propyl propanoate]
mass density [1]: 854.57 ± 0.99 kg/m3 | refractive index [2]: 1.3809 ± 0.0008

CCOC(=O)CC [ethyl propanoate]
mass density [1]: 860.98 ± 0.99 kg/m3 | refractive index [2]: 1.3711 ± 0.0008

CCCCCCCCCCCCCCCCC [heptadecane] + CCCCOC(=O)CC
excess molar enthalpy ([3]; x2 = 0.0939): 0.101 ± 0.00196 kcal/mol | excess molar enthalpy ([3]; x2 = 0.1935): 0.175 ± 0.00311 kcal/mol | excess molar enthalpy ([3]; x2 = 0.2953): 0.241 ± 0.00406 kcal/mol | excess molar enthalpy ([3]; x2 = 0.3647): 0.278 ± 0.00478 kcal/mol | excess molar enthalpy ([3]; x2 = 0.4302): 0.3 ± 0.00502 kcal/mol | excess molar enthalpy ([3]; x2 = 0.4836): 0.311 ± 0.00526 kcal/mol | excess molar enthalpy ([3]; x2 = 0.5295): 0.314 ± 0.00526 kcal/mol | excess molar enthalpy ([3]; x2 = 0.5642): 0.313 ± 0.00526 kcal/mol | excess molar enthalpy ([3]; x2 = 0.5727): 0.312 ± 0.00526 kcal/mol | excess molar enthalpy ([3]; x2 = 0.5964): 0.31 ± 0.00526 kcal/mol | excess molar enthalpy ([3]; x2 = 0.6386): 0.298 ± 0.00502 kcal/mol | excess molar enthalpy ([3]; x2 = 0.6808): 0.284 ± 0.00478 kcal/mol | excess molar enthalpy ([3]; x2 = 0.7248): 0.264 ± 0.00454 kcal/mol | excess molar enthalpy ([3]; x2 = 0.7703): 0.236 ± 0.00406 kcal/mol | excess molar enthalpy ([3]; x2 = 0.8172): 0.202 ± 0.00359 kcal/mol | excess molar enthalpy ([3]; x2 = 0.8639): 0.164 ± 0.00287 kcal/mol | excess molar enthalpy ([3]; x2 = 0.911): 0.116 ± 0.00222 kcal/mol | excess molar enthalpy ([3]; x2 = 0.9568): 0.0625 ± 0.00141 kcal/mol | excess molar volume ([4]; x2 = 0.1135): 3.06e-07 ± 1.7e-08 m3/mol | excess molar volume ([4]; x2 = 0.2186): 5.48e-07 ± 1.8e-08 m3/mol | excess molar volume ([4]; x2 = 0.3079): 7.39e-07 ± 1.9e-08 m3/mol | excess molar volume ([4]; x2 = 0.3903): 8.52e-07 ± 1.9e-08 m3/mol | excess molar volume ([4]; x2 = 0.4652): 8.98e-07 ± 2e-08 m3/mol | excess molar volume ([4]; x2 = 0.5331): 9.21e-07 ± 2e-08 m3/mol | excess molar volume ([4]; x2 = 0.5915): 9.16e-07 ± 2e-08 m3/mol | excess molar volume ([4]; x2 = 0.6482): 8.91e-07 ± 2e-08 m3/mol | excess molar volume ([4]; x2 = 0.7001): 8.35e-07 ± 1.9e-08 m3/mol | excess molar volume ([4]; x2 = 0.7497): 7.85e-07 ± 1.9e-08 m3/mol | excess molar volume ([4]; x2 = 0.7938): 6.9e-07 ± 1.9e-08 m3/mol | excess molar volume ([4]; x2 = 0.8335): 6.09e-07 ± 1.8e-08 m3/mol | excess molar volume ([4]; x2 = 0.8704): 5.1e-07 ± 1.8e-08 m3/mol | excess molar volume ([4]; x2 = 0.907): 4.01e-07 ± 1.7e-08 m3/mol | excess molar volume ([4]; x2 = 0.9407): 2.87e-07 ± 1.7e-08 m3/mol | excess molar volume ([4]; x2 = 0.9701): 1.43e-07 ± 1.6e-08 m3/mol

CCCCOC(=O)CC [butyl propanoate] + CCCCCCCCC
excess molar enthalpy ([3]; x1 = 0.0694): 0.0639 ± 0.00139 kcal/mol | excess molar enthalpy ([3]; x1 = 0.1491): 0.116 ± 0.00217 kcal/mol | excess molar enthalpy ([3]; x1 = 0.2269): 0.159 ± 0.00287 kcal/mol | excess molar enthalpy ([3]; x1 = 0.302): 0.189 ± 0.00335 kcal/mol | excess molar enthalpy ([3]; x1 = 0.3723): 0.207 ± 0.00359 kcal/mol | excess molar enthalpy ([3]; x1 = 0.4365): 0.215 ± 0.00359 kcal/mol | excess molar enthalpy ([3]; x1 = 0.4936): 0.215 ± 0.00359 kcal/mol | excess molar enthalpy ([3]; x1 = 0.5364): 0.213 ± 0.00359 kcal/mol | excess molar enthalpy ([3]; x1 = 0.5441): 0.211 ± 0.00359 kcal/mol | excess molar enthalpy ([3]; x1 = 0.5775): 0.21 ± 0.00359 kcal/mol | excess molar enthalpy ([3]; x1 = 0.5891): 0.207 ± 0.00359 kcal/mol | excess molar enthalpy ([3]; x1 = 0.6309): 0.2 ± 0.00359 kcal/mol | excess molar enthalpy ([3]; x1 = 0.6873): 0.184 ± 0.00311 kcal/mol | excess molar enthalpy ([3]; x1 = 0.7512): 0.159 ± 0.00287 kcal/mol | excess molar enthalpy ([3]; x1 = 0.8149): 0.128 ± 0.00237 kcal/mol | excess molar enthalpy ([3]; x1 = 0.8787): 0.089 ± 0.00177 kcal/mol | excess molar enthalpy ([3]; x1 = 0.9424): 0.0465 ± 0.00112 kcal/mol | excess molar volume ([4]; x1 = 0.0333): 9.9e-08 ± 1.6e-08 m3/mol | excess molar volume ([4]; x1 = 0.0721): 1.95e-07 ± 1.6e-08 m3/mol | excess molar volume ([4]; x1 = 0.139): 3.26e-07 ± 1.7e-08 m3/mol | excess molar volume ([4]; x1 = 0.2059): 4.35e-07 ± 1.8e-08 m3/mol | excess molar volume ([4]; x1 = 0.2687): 5.18e-07 ± 1.8e-08 m3/mol | excess molar volume ([4]; x1 = 0.3345): 5.69e-07 ± 1.8e-08 m3/mol | excess molar volume ([4]; x1 = 0.3947): 5.89e-07 ± 1.8e-08 m3/mol | excess molar volume ([4]; x1 = 0.4555): 6.09e-07 ± 1.8e-08 m3/mol | excess molar volume ([4]; x1 = 0.5165): 6.08e-07 ± 1.8e-08 m3/mol | excess molar volume ([4]; x1 = 0.5747): 5.79e-07 ± 1.8e-08 m3/mol | excess molar volume ([4]; x1 = 0.6293): 5.5e-07 ± 1.8e-08 m3/mol | excess molar volume ([4]; x1 = 0.6868): 5.08e-07 ± 1.8e-08 m3/mol | excess molar volume ([4]; x1 = 0.7408): 4.43e-07 ± 1.8e-08 m3/mol | excess molar volume ([4]; x1 = 0.7931): 3.73e-07 ± 1.7e-08 m3/mol | excess molar volume ([4]; x1 = 0.8466): 3.03e-07 ± 1.7e-08 m3/mol | excess molar volume ([4]; x1 = 0.8978): 2.16e-07 ± 1.7e-08 m3/mol | excess molar volume ([4]; x1 = 0.9473): 1.21e-07 ± 1.6e-08 m3/mol

CCOC(=O)CC [ethyl propanoate] + CCCCCCC
excess molar enthalpy ([3]; x1 = 0.0724): 0.0766 ± 0.0016 kcal/mol | excess molar enthalpy ([3]; x1 = 0.1469): 0.142 ± 0.00263 kcal/mol | excess molar enthalpy ([3]; x1 = 0.2238): 0.196 ± 0.00335 kcal/mol | excess molar enthalpy ([3]; x1 = 0.294): 0.234 ± 0.00406 kcal/mol | excess molar enthalpy ([3]; x1 = 0.3653): 0.261 ± 0.0043 kcal/mol | excess molar enthalpy ([3]; x1 = 0.4286): 0.273 ± 0.00454 kcal/mol | excess molar enthalpy ([3]; x1 = 0.4855): 0.277 ± 0.00454 kcal/mol | excess molar enthalpy ([3]; x1 = 0.5345): 0.274 ± 0.00454 kcal/mol | excess molar enthalpy ([3]; x1 = 0.5733): 0.267 ± 0.00454 kcal/mol | excess molar enthalpy ([3]; x1 = 0.5847): 0.264 ± 0.00454 kcal/mol | excess molar enthalpy ([3]; x1 = 0.6302): 0.254 ± 0.0043 kcal/mol | excess molar enthalpy ([3]; x1 = 0.682): 0.237 ± 0.00406 kcal/mol | excess molar enthalpy ([3]; x1 = 0.7393): 0.213 ± 0.00359 kcal/mol | excess molar enthalpy ([3]; x1 = 0.7978): 0.181 ± 0.00311 kcal/mol | excess molar enthalpy ([3]; x1 = 0.8563): 0.142 ± 0.00263 kcal/mol | excess molar enthalpy ([3]; x1 = 0.9088): 0.0966 ± 0.00191 kcal/mol | excess molar enthalpy ([3]; x1 = 0.963): 0.0455 ± 0.00115 kcal/mol | excess molar volume ([4]; x1 = 0.0401): 1.58e-07 ± 1.6e-08 m3/mol | excess molar volume ([4]; x1 = 0.0797): 3.09e-07 ± 1.7e-08 m3/mol | excess molar volume ([4]; x1 = 0.1474): 5.09e-07 ± 1.8e-08 m3/mol | excess molar volume ([4]; x1 = 0.2182): 6.76e-07 ± 1.9e-08 m3/mol | excess molar volume ([4]; x1 = 0.2873): 7.86e-07 ± 1.9e-08 m3/mol | excess molar volume ([4]; x1 = 0.3497): 8.53e-07 ± 1.9e-08 m3/mol | excess molar volume ([4]; x1 = 0.4098): 8.95e-07 ± 2e-08 m3/mol | excess molar volume ([4]; x1 = 0.5276): 8.77e-07 ± 2e-08 m3/mol | excess molar volume ([4]; x1 = 0.5897): 8.41e-07 ± 1.9e-08 m3/mol | excess molar volume ([4]; x1 = 0.6453): 7.71e-07 ± 1.9e-08 m3/mol | excess molar volume ([4]; x1 = 0.701): 7.23e-07 ± 1.9e-08 m3/mol | excess molar volume ([4]; x1 = 0.7534): 6.41e-07 ± 1.8e-08 m3/mol | excess molar volume ([4]; x1 = 0.808): 5.27e-07 ± 1.8e-08 m3/mol | excess molar volume ([4]; x1 = 0.8554): 4.12e-07 ± 1.7e-08 m3/mol | excess molar volume ([4]; x1 = 0.9045): 2.9e-07 ± 1.7e-08 m3/mol | excess molar volume ([4]; x1 = 0.9534): 1.5e-07 ± 1.6e-08 m3/mol

CCCCCOC(=O)CC [pentyl propanoate]
mass density [1]: 848.98 ± 0.99 kg/m3
